Holding throughout (assay type): cell-based
Assay [1] relates to RPE cells. As to the kind of experiment: Scratch assay, cell migration upon TGF-β1 stimulation. The note with it: 1 μM, TGF-β1 2.5 ng/ml, 24 and 48 hours. The method, then: (§1) FIGS. 2A-2C TAK1 regulates RPE cells EMT phenotype upon TGF-β stimulation. FIG. 2A: RPE cells were serum-starved for 16 hours, pretreated with 5Z-7-oxozeaenol (1 μM) or left untreated for 1 hour. The cells were then treated with TGF-β1 (2.5 ng/ml) as described herein for 24 h and immunostained with α-SMA antibodies (red) and DAPI (blue). Representative photographs of three independent experiments. The histogram in the bottom panel represents quantification of α-SMA antibody pixel intensity. FIG. 2B: RPE cells were serum-starved for 16 hours, then treated with mitomycin C (10 ng/ml) for 3 h. Thereafter, pretreated with 5Z-7-oxozeaenol (1 μM) or Dimethyl sulfoxide (DMSO) for 1 hour. Following this process a scratch was performed in the cell monolayer and the serum free medium was supplemented with TGF-β1 (2.5 ng/ml) or left unsupplemented. Scratches were photo-documented at the indicated times (top panel) and their width was measured using Image-J software. […] Bars are Mean±SD. FIG. 2C: RPE cells were serum-starved for 16 hours then pretreated with 5Z-7-oxozeaenol (1 μM) or SB431542 (10 μM), or DMSO for 1 hour. […] Total MMP-9 activities were processed by gelatin zymography (top panel) and the band intensity values were calculated by Quantity One® 1-D analysis software. […] Data is expressed as the Mean±SD. […]

The next assay deals with MMP-9. In words: MMP-9 activity by gelatin zymography in RPE cell supernatants. The note with it: RPE cells, pretreatment 1 μM, TGF-β1 2.5 ng/ml, 24 hours; TGF-β1 alone 3.2 fold. On the procedure: FIGS. 2A-2C TAK1 regulates RPE cells EMT phenotype upon TGF-β stimulation. FIG. 2A: RPE cells were serum-starved for 16 hours, pretreated with 5Z-7-oxozeaenol (1 μM) or left untreated for 1 hour. The cells were then treated with TGF-β1 (2.5 ng/ml) as described herein for 24 h and immunostained with α-SMA antibodies (red) and DAPI (blue). Representative photographs of three independent experiments. The histogram in the bottom panel represents quantification of α-SMA antibody pixel intensity. FIG. 2B: RPE cells were serum-starved for 16 hours, then treated with mitomycin C (10 ng/ml) for 3 h. Thereafter, pretreated with 5Z-7-oxozeaenol (1 μM) or Dimethyl sulfoxide (DMSO) for 1 hour. Following this process a scratch was performed in the cell monolayer and the serum free medium was supplemented with TGF-β1 (2.5 ng/ml) or left unsupplemented. Scratches were photo-documented at the indicated times (top panel) and their width was measured using Image-J software. […] Bars are Mean±SD. FIG. 2C: RPE cells were serum-starved for 16 hours then pretreated with 5Z-7-oxozeaenol (1 μM) or SB431542 (10 μM), or DMSO for 1 hour. […] Total MMP-9 activities were processed by gelatin zymography (top panel) and the band intensity values were calculated by Quantity One® 1-D analysis software. […] Data is expressed as the Mean±SD.

Assay [2] deals with RPE cells. In words: α-SMA expression (immunostaining) upon TGF-β1 stimulation. The note with it: 5Z-7-oxozeaenol 1 μM pretreatment 1 hour, TGF-β1 2.5 ng/ml, serum-free. On the procedure:
as §1

In another assay the test system is CTGF. As to the kind of experiment: CTGF transcription by qPCR in RPE cells. The note with it: 1 μM, TGF-β1, 6 h, 16 h and 24 h. On the procedure:
FIG. 3A: RPE cells were plated on fibronectin-coated glass coverslips, serum-starved for 16 hours, pretreated with 5Z-7-oxozeaenol (1 μM) or SB431542 (10 μM), or DMSO for 1 hour, then treated with or without TGF-β1 for 2 days. Following treatment, the cells were stained with rhodamine-phalloidin (actin fibers-red) and DAPI (blue) and visualized by confocal microscopy. Scale bars: […]. FIG. 3B: Serum-starved RPE cells pretreated with 5Z-7-oxozeaenol (1 μM) or DMSO for 1 hour, and were exposed to TGF-β as in FIG. 3A. Total RNA was extracted at each time point and qPCR was performed. Transcription levels of CTGF were determined after 6 h, 16 h and 24 h. Bars represent the specific mRNA amount relative to GAPDH mRNA in the same samples. All experiments were performed in triplicates. A representative histogram from two independent experiments is shown. FIG. 3C: RPE cells were plated and treated as in FIG. 3A. Following treatment, the cells were immunostained with E-cadherin antibodies (green) and DAPI (blue). Representative photographs of two independent experiments are shown. CTGF, an important stimulant of fibrosis, functions as a downstream mediator of TGF-β, stimulating cell proliferation and cell matrix deposition (He et al., Invest Ophthalmol Vis Sci 2008, 49:4078-4088). We examined the association between TGF-β1 and CTFG expression in RPE cells by Real Time PCR (FIG. 3B).
(In general: In qPCR the cycle at which signal appears reflects the starting amount.)

In assay [3] the test system is TGF-β cascades in epithelial lung cells. As to the kind of experiment: Western blot of TGF-β cascades in A549 lung cells. To be noted: 1 μM for 1 hour, TGF-β 2.5 ng/ml. On the procedure:
FIG. 14: Inhibition of TAK1 by 5z-7 abolishes the activation of TGF-β cascades in epithelial lung cells: Serum-starved A549 cells were pretreated with or without with 5Z-7-oxozeaenol (1 μM) for 1 hour and then with TGF-β (2.5 ng/ml) for the indicated times. Total protein extracts were analyzed by western blot using the indicated antibodies. […] Similarly, A549 lung cells were pretreated with or without with 5Z-7-oxozeaenol (1 μM) for 1 hour and then with TGF-β (2.5 ng/ml).

Assay [4] concerns RPE cells. As to the kind of experiment: Floating collagen matrix contraction assay in full serum. The note with it: 1 μM, full medium, 24 hours, control cells 50%. The method, then:
FIG. 5A: RPE cells were pre-treated with or without 5Z-7-oxozeaenol (1 μM) and seeded in collagen lattices in full medium. The experiments were performed in triplicates. Lattices were photo-documented after 24 hours and measured using Image-J software. […] Bars are Mean±SD. The transition of RPE cells to myofibroblasts is characterized, among other aspects, by increased contractile activity (Umazume et al., Invest Ophthalmol Vis Sci 2013, 54:1150-1159; Sakamoto et al., Curr Eye Res 1994, 13:451-459; West-Mays et al., Int J Biochem Cell Biol 2006, 38:1625-1631; Ma et al., Clinical & experimental ophthalmology 2012, 40:e76-86). To examine whether TAK1 is a general regulator of the EMT process affecting cell contractility, floating collagen matrix contraction assay was performed. The test was carried out in full serum with or without TAK1 inhibitor (FIGS. 5A and 5B). While in the control cells significant contraction was observed after 24 hours, reaching 50% of the initial size, TAK1 inhibition impaired the capacity of the cells to contract. The collagen lattice remained nearly 80% from the initial size (FIGS. 5A and B).

`COc1cc(O)c2c(c1)/C=C/C[C@H](O)[C@H](O)C(=O)/C=C\C[C@H](C)OC2=O` [5Z-7-oxozeaenol]: the “migratory capacity of TGF-β1 stimulated cells (scratch assay)” value with RPE cells [1] is reported as “abolished their migratory capacity”. Also, the “MMP-9 activity, fold higher than the control group” value with MMP-9 is given as 1.59 fold. Further, in the assay with RPE cells [2], the “TGF-β1-stimulated α-SMA expression” value is listed as “significantly attenuated”. Further, the “levels of CTGF (mRNA relative to GAPDH)” value in the assay with CTGF is “gradually reduced the levels of CTGF”. Besides, the “fibrotic affect stimulated by TGF-β (western blot)” value in assay [3] was “abolishes the fibrotic affect”. In addition, the “collagen lattice area relative to initial size” value in the assay on RPE cells [4] is reported as ~80%.

These data come from patent US10206900B2, “Treatments for fibrotic diseases” (MOR RESEARCH APPLICATIONS LTD., priority 2013, dated 2019).
